From patent US20140357487A1, “PLANTS HAVING INCREASED TOLERANCE TO HERBICIDES” (BASF SE, priority 2011, published 2014)

Legend:
Poa HPPD = experiment: HPPD activity assay, Poa HPPD; format: biochemical; conditions: normalized on Arabidopsis wild-type HPPD
Procedure: (§1) HPPD produces homogentisic acid and CO2 from 4-hydroxyphenylpyruvate (4-HPP) and O2. The activity assay for HPPD is based on the analysis of homogentisic acid by reversed phase HPLC.
(§2) The assay mixture can contain 150 mM potassium phosphate buffer pH 7.0, 50 mM L-ascorbic acid, 1 μM FeSO4 and 7 μg of purified enzyme in a total volume of 1 ml.
Inhibitors are dissolved in DMSO (dimethylsulfoxide) to a concentration of 20 mM or 0.5 mM, respectively. From this stock solution serial five-fold dilutions are prepared in DMSO, which are used in the assay. The respective inhibitor solution accounts for 1% of the assay volume. Thus, final inhibitor concentrations range from 200 μM to 2.5 nM or from 5 μM to 63 pM, respectively. After a preincubation of 30 min the reaction is started by adding 4-HPP to a final concentration of 0.1 mM. The reaction is allowed to proceed for 120 min at room temperature. The reaction is stopped by addition of 100 μl of 4.5 M phosphoric acid.
Activities are normalized by setting the uninhibited enzyme activity to 100%. IC50 values are calculated using non-linear regression.
The assay mixture can contain 150 mM potassium phosphate buffer pH 7.0, 50 mM L-ascorbic acid, 100 μM Catalase (Sigma-Aldrich), 1 μM FeSO4 and 0.2 units of purified HPPD enzyme in a total volume of 505 μl. […]
(§3) Inhibitors are dissolved in DMSO (dimethylsulfoxide) to a concentration of 0.5 mM. […] IC50 values are calculated using non-linear regression.
Using methods which are described in the above examples or well known in the art, purified, recombinant wildtype HPPD enzymes are characterized with respect to their kinetic properties and sensitivity towards HPPD inhibiting herbicides. Apparent michaelis constants (Km) and maximal reaction velocities (Vmax) are calculated by non-linear regression with the software GraphPad Prism 5 (GraphPad Software, La Jolla, USA) using a substrate inhibition model. […] Weighted means (by standard error) of Km and […] values are calculated from at least three independent experiments. […]

[1] = test system: transgenic corn plants, Arabidopsis M335H, event SDM-71923; experiment: Greenhouse testing of transgenic corn plants, Arabidopsis M335H; format: in vivo, Zea mays; conditions: corn SDM-71923, 5 days after herbicide treatment, average of 8 T1
Text: (§4) Various methods for the production of stably transformed plants are well known in the art. Coumarone-derivative herbicide tolerant soybean (Glycine max) or corn (Zea mays) plants can be produced by a method described by Olhoft et al. (US patent 2009/0049567). Briefly, HPPD or HST encoding polynucleotides are cloned into a binary vector using standard cloning techniques as described by Sambrook et al. (Molecular cloning (2001) Cold Spring Harbor Laboratory Press). The final vector construct contains an HPPD or HST encoding sequence flanked by a promoter sequence (e.g. the ubiquitin promoter (PcUbi) sequence) and a terminator sequence (e.g. the nopaline synthase terminator (NOS) sequence) and a resistance marker gene cassette (e.g. AHAS) (FIG. 2). Optionally, the HPPD or HST gene can provide the means of selection. Agrobacterium-mediated transformation is used to introduce the DNA into soybean's axillary meristem cells at the primary node of seedling explants. After inoculation and co-cultivation with Agrobacteria, the explants are transferred to shoot induction medium without selection for one week. The explants are subsequently transferred to shoot induction medium with 1-3 μM imazapyr (Arsenal) for 3 weeks to select for transformed cells. Explants with healthy callus/shoot pads at the primary node are then transferred to shoot elongation medium containing 1-3 μM imazapyr until a shoot elongates or the explant dies. After regeneration, transformants are transplanted to soil in small pots, placed in growth chambers (16 hr day/8 hr night; 25° C. day/23° C. night; 65% relative humidity; 130-150 mE m−2 s−1) and subsequently tested for the presence of the T-DNA via Taqman analysis. After a few weeks, healthy, transgenic positive, single copy events are transplanted to larger pots and allowed to grow in the growth chamber. Transformation of corn plants is done by a method described by McElver and Singh (WO 2008/124495). Plant transformation vector constructs containing HPPD or HST sequences are introduced into maize immature embryos via Agrobacterium-mediated transformation. Transformed cells are selected in selection media supplemented with 0.5-1.5 μM imazethapyr for 3-4 weeks. Transgenic plantlets are regenerated on plant regeneration media and rooted afterwards. Transgenic plantlets are subjected to TaqMan analysis for the presence of the transgene before being transplanted to potting mixture and grown to maturity in greenhouse. Arabidopsis thaliana is transformed with HPPD or HST sequences by floral dip method as described by McElver and Singh (WO 2008/124495). Transgenic Arabidopsis plants are subjected to Tag Man analysis for analysis of the number of integration loci. Transformation of Oryza sativa (rice) are done by protoplast transformation as described by Peng et al. (U.S. Pat. No. 6,653,529)
(§5) Transgenic plants expressing heterologous HPPD or HST enzymes are tested for tolerance against coumarone-derivative herbicides in greenhouse experiments.
(§6) For post emergence treatment, the test plants are first grown to a height of 3 to 15 cm, depending on the plant habit, and only then treated with the herbicides. For this purpose, the test plants are either sown directly and grown in the same containers, or they are first grown separately and transplanted into the test containers a few days prior to treatment.
(§7) Depending on the species, the plants are kept at 10-25° C. or 20-35° C. The test period extends over 3 weeks. During this time, the plants are tended and their response to the individual treatments is evaluated. […] Tolerance to coumarone-derivative herbicides can also be assessed in Arabidopsis. In this case transgenic Arabidopsis thaliana plants are assayed for improved tolerance to coumarone-derivative herbicides in 48-well plates. Seeds are surface sterilized by stirring for 5 min in ethanol+water (70+30 by volume), rinsing one time with ethanol+water (70+30 by volume) and two times with a sterile, deionized water. […]

[2] = test system: soybean plants, wild type (transgene none); experiment: Greenhouse testing of soybean plants, wild type; format: in vivo, Glycine max; conditions: 5 days after herbicide treatment
Text: as §4, §5, §6, §7

Kordia HPPD = experiment: HPPD activity assay, Kordia HPPD; format: biochemical; conditions: normalized on Arabidopsis wild-type HPPD
Procedure: as §1, §2
Inhibitors are dissolved in DMSO (dimethylsulfoxide) to a concentration of 20 mM or 0.5 mM, respectively. From this stock solution serial five-fold dilutions are prepared in DMSO, which are used in the assay. The respective inhibitor solution accounts for 1% of the assay volume. […]
Activities are normalized by setting the uninhibited enzyme activity to 100%. IC50 values are calculated using non-linear regression. […]
as §3
Using methods which are described in the above examples or well known in the art, purified, recombinant wildtype HPPD enzymes are characterized with respect to their kinetic properties and sensitivity towards HPPD inhibiting herbicides. Apparent michaelis constants (Km) and maximal reaction velocities (Vmax) are calculated by non-linear regression with the software GraphPad Prism 5 (GraphPad Software, La Jolla, USA) using a substrate inhibition model. […]

## CC1(C)c2cccnc2C(O)=C(c2ccc(Cl)nc2Cl)S1(=O)=O [Inhibitor 2, 7-(2,6-dichloro-3-pyridyl)-5,5-dimethyl-6,6-dioxo-thiopyrano[4,3-b]pyridin-8-ol]
Poa HPPD
  Normalized tolerance index TI: 1.1
[1]; 2.5 g/ha
  Injury evaluation, scale of 1-100, bleaching phenotype: 6
[1]; 10 g/ha
  Injury evaluation, scale of 1-100, bleaching phenotype: 4
[1]; 40 g/ha
  Injury evaluation, scale of 1-100, bleaching phenotype: 6
[2]; 2.5 g/ha
  Injury evaluation, scale of 1-100, bleaching phenotype: 11
[2]; 10 g/ha
  Injury evaluation, scale of 1-100, bleaching phenotype: 17
[2]; 40 g/ha
  Injury evaluation, scale of 1-100, bleaching phenotype: 23

## Cc1c(C(=O)c2cnn(C)c2O)ccc(S(C)(=O)=O)c1C1=NOCC1 [Topramezone, reference compound]
[1]; 6.25 g/ha
  Injury evaluation, scale of 1-100, bleaching phenotype: 0
[1]; 25 g/ha
  Injury evaluation, scale of 1-100, bleaching phenotype: 0
[1]; 100 g/ha
  Injury evaluation, scale of 1-100, bleaching phenotype: 0
[2]; 6.25 g/ha
  Injury evaluation, scale of 1-100, bleaching phenotype: 21
[2]; 25 g/ha
  Injury evaluation, scale of 1-100, bleaching phenotype: 22
[2]; 100 g/ha
  Injury evaluation, scale of 1-100, bleaching phenotype: 25

## COCCOCc1c(Cl)ccc(C2=C(O)c3ncccc3C(C)(C)S2(=O)=O)c1Cl [Inhibitor 3, 7-[2,4-dichloro-3-(2-methoxyethoxymethyl)phenyl]-5,5-dimethyl-6,6-dioxo-thiopyrano[4,3-b]pyridin-8-ol]
Kordia HPPD
  Normalized tolerance index TI: 0.7

## CC1=NOC(c2c(Cl)ccc(C3=C(O)c4ncccc4C(C)(C)S3(=O)=O)c2Cl)C1 (stereo not shown) [Inhibitor 1, 7-[2,4-dichloro-3-(3-methyl-4,5-dihydroisoxazol-5-yl)phenyl]-5,5-dimethyl-6,6-dioxo-thiopyrano[4,3-b]pyridin-8-ol]
Kordia HPPD
  Normalized tolerance index TI: 22
Poa HPPD
  Normalized tolerance index TI: 2.1
